Measurements from patent US10206388B2, “Formulation component” (SYNGENTA LIMITED, priority 2011, dated 2019).

Legend:
Type in all cases: in vivo
[1] = system: Brachiaria platyphylla (BRAPL); assay: Glasshouse weed test, mesotrione with adjuvants; settings: Table 10, Example 7: mesotrione 60 or 120 g/ha; adjuvant 0.2% v/v; Tetronic 1107 in spray tank; mean over two rates, three replicates, 7, 14 and 20 days
Protocol: (§1) The aromatic ester Finsolv® TN (C12-C15 alkyl benzoate) was tested in a glasshouse against three weed species using the herbicide mesotrione. An agrochemical composition was prepared containing 0.2% v/v of the adjuvant in a track sprayer and was applied at a volume of 200 liters per hectare. Mesotrione was applied at either 60 or 120 grams of pesticide per hectare on weeds which had been grown to the 1.3 or 1.4 leaf stage. The weed species were Xanthium strumarium (XANST), Brachiaria platyphylla (BRAPL), and Digitaria sanguinalis (DIGSA). The commercially available surfactant Tetronic® 1107 was used in the spray tank at a concentration of 0.036 g/l alongside the lower concentration of mesotrione and at a concentration of 0.072 g/l at the higher concentration of mesotrione.
(§2) Each spray test was replicated three times. The efficacy of the herbicide was assessed visually and expressed as a percentage of the leaf area killed. Samples were assessed at time periods of 7, 14 and 20 days following application. The results shown in Table 10 below are mean averages over the two rates of mesotrione, three replicates and the three assessment timings, and are compared to the efficacy of mesotrione in the absence of adjuvant and mesotrione in the presence of the well-known adjuvant Tween® 20.

[2] = system: Digitaria sanguinalis (DIGSA); assay: Glasshouse weed test, mesotrione with adjuvants; settings: Table 10, Example 7: mesotrione 60 or 120 g/ha; adjuvant 0.2% v/v; Tetronic 1107 in spray tank; mean over two rates, three replicates, 7, 14 and 20 days
Protocol: as §1, §2

[3] = system: Xanthium strumarium (XANST); assay: Glasshouse weed test, mesotrione with adjuvants; settings: Table 10, Example 7: mesotrione 60 or 120 g/ha; adjuvant 0.2% v/v; Tetronic 1107 in spray tank; mean over two rates, three replicates, 7, 14 and 20 days
Protocol: as §1, §2

[4] = system: three weed species (XANST, BRAPL, DIGSA); assay: Glasshouse weed test, mesotrione with adjuvants, mean across species; settings: mean over two rates
Protocol: as §1, §2
A second experiment was conducted to assess the efficacy of Finsolv® TN as an adjuvant in compositions of mesotrione. This was carried out as outlined above, with the following change: samples were assessed at 6, 14 and 20 days post application.
The results shown in Table 11 below are mean averages over the two rates of mesotrione, three replicates, the three assessment timings, and the three weed species, and are compared to the efficacy of mesotrione in the absence of adjuvant and mesotrione in the presence of the well-known adjuvant Tween® 20.
as §1, with “An” for “The aromatic ester Finsolv® TN (C12-C15 alkyl benzoate) was tested in a glasshouse against three weed species using the herbicide mesotrione. An”
as §2, with “Brij®96. The results shown in Table 16 below are mean averages over the two rates of mesotrione, three replicates, three assessment timings and three weed species. The results are compared to the efficacy of mesotrione in the absence of an adjuvant and mesotrione in the presence of the commercially available adjuvant Brij®96.” for “Tween® 20.”
An agrochemical composition was prepared containing 0.2% v/v of the adjuvant in a track sprayer and was applied at a volume of 200 liters per hectare. The adjuvant oils were emulsified using a small amount of the surfactant Pluronic® PE 10500, which was present in the composition at a concentration of 0.02% v/v. Mesotrione was applied at either 60 or 120 grams of pesticide per hectare on weeds which had been grown to the 1.3 or 1.4 leaf stage. The weed species were Xanthium strumarium (XANST), Brachiaria platyphylla (BRAPL), and Digitaria sanguinalis (DIGSA). […]

[5] = system: four weed species (POLCO, BRAPL, COMBE, DIGSA); assay: Glasshouse weed test, mesotrione with adjuvants at several rates, mean across species; settings: Table 25, Example 21: absence of adjuvant, mesotrione 60 or 120 g/ha, Tetronic 1107, mean over two rates, three replicates, 14 and 21 days
Protocol: An agrochemical composition was prepared containing either 0.2, 0.1, 0.05 or 0.025% v/v of the adjuvant in a track sprayer and was applied at a volume of 200 liters per hectare. The commercial adjuvant Tween20® was applied at 0.2% v/v. Mesotrione was applied at either 60 or 120 grams of pesticide per hectare on weeds which had been grown to the 1.3 or 1.4 leaf stage. The commercially available surfactant Tetronic® 1107 was used in the spray tank at a concentration of 0.036 g/l alongside the lower concentration of mesotrione and at a concentration of 0.072 g/l at the higher concentration of mesotrione. The weed species were Polygonum convolvulus (POLCO) 13, Brachiaria platyphylla (BRAPL) 12-13, Comelina berghalensis (COMBE) 12 and Digitaria sanguinalis (DIGSA) 13.
Each spray test was replicated three times. The efficacy of the herbicide was assessed visually and expressed as a percentage of the leaf area killed. Samples were assessed at time periods of 14 and 21 days following application. The results shown in Table 25 below are mean averages over the two rates of mesotrione, three replicates, four weed species and the two assessment timings. The adjuvants are compared to the efficacy of mesotrione in the absence of adjuvant and mesotrione in the presence of the well-known adjuvant Tween®20.

## CS(=O)(=O)c1ccc(C(=O)C2C(=O)CCCC2=O)c([N+](=O)[O-])c1 [Mesotrione, mesotrione]
[1]
  Mean percentage kill BRAPL: 5.3 B %
[2]
  Mean percentage kill DIGSA: 20.0 B %
[3]
  Mean percentage kill XANST: 36.7 A %
[4]; Table 10, Example 7: mesotrione 60 or 120 g/ha, adjuvant 0.2% v/v, Tetronic 1107 in spray tank, three replicates, 7, 14 and 20 days
  Mean percentage kill, Mean across species: 19.9 B %
[4]; Table 11, Example 7 second experiment: mesotrione 60 or 120 g/ha, adjuvant 0.2% v/v, three replicates, 6, 14 and 20 days, three weed species
  Mean percentage kill, Mean across species: 33.0 B %
[4]; Table 16, Example 12: mesotrione 60 or 120 g/ha, adjuvant 0.2% v/v, Tetronic 1107 in spray tank, three replicates, 7, 14 and 20 days, three weed species
  Mean percentage kill, Mean across species: 18.0 C %
[4]; Table 21, Example 17: mesotrione 60 or 120 g/ha, adjuvant 0.2% v/v emulsified with Pluronic PE 10500 0.02% v/v, Tetronic 1107, three replicates, 14 and 21 days, three weed species
  Mean percentage kill, Mean across species: 19.9C %
[4]; Table 29, Example 26: mesotrione 60 or 120 g/ha, adjuvant 0.2% v/v, Tetronic 1107, three replicates, 14 and 21 days, three weed species
  Mean percentage kill, Mean across species: 39.4C %
[4]; Table 35, Example 35: mesotrione 60 or 120 g/ha, adjuvant 0.2% v/v, Tetronic 1107, three replicates, 14 and 21 days, three weed species
  Mean percentage kill, Mean across species: 33.8B %
[5]
  Mean percentage kill, Mean across species: 33.7D %
